Test results: the supplement of paper PMC4862054

Tests used:
Settings in all cases: incubation time: 72 h
DU-4475 [1] = test: normalised viability (% of control), CellTiter-Blue; higher = more viable cells (about 100 = DMSO control)
How it was run: (§1)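 Each entry is normalised viability at a single listed concentration within a series. It comes from breast cancer cell lines incubated 72 h with compound in 384-well plates, then measured with CellTiter-Blue fluorescence at 560/590 nm. Every plate was normalised between vehicle (100) and a positive kill control (0).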

HCC1937 [2] = test: as above
How it was run: as §1

BT-474 = test: drug sensitivity score (DSS), CellTiter-Blue viability (DSS (AUC-based score)); higher = stronger viability inhibition; extreme values may be limits of the assay
Procedure: (§2)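 DSRT with the CellTiter-Blue (resazurin reduction) viability readout, fluorescence 560/590 nm, 72 h incubation. Plates were normalised to DMSO and benzethonium chloride controls. DSS is computed from the area under the fitted dose-response curve (5 or 9 concentrations).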

MDA-MB-468 = test: as above
Procedure: as §2

DU-4475 [3] = test: as above
Procedure: as §2

HDQ-P1 [4] = test: as above
Procedure: as §2

Hs578T = test: as above
Procedure: as §2

CAL-85-1 = test: as above
Procedure: as §2

SK-BR-3 = test: as above
Procedure: as §2

CAL-51 = test: as above
Procedure: as §2

MDA-MB-231 = test: as above
Procedure: as §2

HCC1599 = test: as above
Procedure: as §2

MDA-MB-436 = test: as above
Procedure: as §2

MFM-223 [5] = test: as above
Procedure: as §2

HCC1143 = test: as above
Procedure: as §2

CAL-120 = test: as above
Procedure: as §2

CAL-148 [6] = test: as above
Procedure: as §2

HCC1937 [7] = test: as above
Procedure: as §2

MDA-MB-453 = test: as above
Procedure: as §2

BT-549 [8] = test: as above
Procedure: as §2

HDQ-P1 [9] = test: drug sensitivity score (DSS), CellTox Green (DSS (AUC-based score)); higher = stronger drug effect (viability inhibition or cytotoxicity); extreme values may be limits of the assay
How it was run: (§3)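 Using 20 µl of cell suspension per well, breast cancer cell lines were seeded into 384-well plates pre-loaded with compound at 5 concentrations in 10-fold steps across a compound-specific 10,000-fold range. Incubation lasted 72 h, after which CellTox Green fluorescence at 485/520 nm and then CellTiter-Glo luminescence, following 10 min at room temperature, were recorded. Each plate was normalised to 0.1 % DMSO and a positive kill control before the drug sensitivity score was derived from the area under the fitted dose-response curve.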

MFM-223 [10] = test: as above
How it was run: as §3

CAL-148 [11] = test: as above
How it was run: as §3

BT-549 [12] = test: as above
How it was run: as §3

Row | Structure (SMILES) | normalised viability (DU-4475 [1]; 3 nM) [%] | normalised viability (DU-4475 [1]; 30 nM) [%] | normalised viability (DU-4475 [1]; 100 nM) [%] | normalised viability (HCC1937 [2]; 10 nM) [%] | normalised viability (HCC1937 [2]; 1000 nM) [%] | normalised viability (HCC1937 [2]; 10000 nM) [%] | drug sensitivity score (BT-474) | drug sensitivity score (MDA-MB-468) | drug sensitivity score (DU-4475 [3]) | drug sensitivity score (HDQ-P1 [4]) | drug sensitivity score (Hs578T) | drug sensitivity score (CAL-85-1) | drug sensitivity score (SK-BR-3) | drug sensitivity score (CAL-51) | drug sensitivity score (MDA-MB-231) | drug sensitivity score (HCC1599) | drug sensitivity score (MDA-MB-436) | drug sensitivity score (MFM-223 [5]) | drug sensitivity score (HCC1143) | drug sensitivity score (CAL-120) | drug sensitivity score (CAL-148 [6]) | drug sensitivity score (HCC1937 [7]) | drug sensitivity score (MDA-MB-453) | drug sensitivity score (BT-549 [8]) | drug sensitivity score (HDQ-P1 [9]) | drug sensitivity score (MFM-223 [10]) | drug sensitivity score (CAL-148 [11]) | drug sensitivity score (BT-549 [12])
1 | CN(C)CCOc1ccc(/C(=C(/CCCl)c2ccccc2)c2ccccc2)cc1 [Toremifene] | 110 | 98.6 | 99.4 | 129 | 93.1 | 114 | 0 | 2.87 | 0 | 0 | 0 | 0 | 0 | 0 | 0 | 0 | 1.83 | 0 | 0 | 0 | 0 | 0 | 1.86 | 0 | 0 | 0 | 0 | 0
2 | CC(C)C[C@@H](C(=O)N[C@H](C(=O)OC1CCCC1)c1ccccc1)[C@H](O)C(=O)NO [Tosedostat] | 95.7 | 98.6 | 68 | 83.6 | 36.8 | 44.5 | 0 | 13.2 | 13.4 | 4.23 | 2.31 | 4.66 | 0 | 4.1 | 12.5 | 0 | 1.84 | 8.63 | 7.29 | 12.7 | 7.49 | 14.9 | 15.8 | 11.3 | 10.1 | 0 | 0 | 9.06
3 | COc1cc2/c(=N/c3ccc(Br)cc3F)nc[nH]c2cc1OCC1CCN(C)CC1 [Vandetanib] | 108 | 102 | 106 | 29.7 | 105 | 59.7 | 7.12 | 6.11 | 0 | 14 | 3.9 | 6.73 | 4.07 | 6.07 | 6.74 | 0 | 13 | 8.55 | 0.583 | 3.15 | 0 | 0 | 3.82 | 5.01 | 1.32 | 0 | 0 | 0
4 | COCC[n+]1c2c(n(Cc3cnccn3)c1C)C(=O)c1ccccc1C2=O [YM155] | 124 | 95.8 | 57.8 | 25 | 0.8 | 2.31 | 32.9 | 40.3 | 23.3 | 33.6 | 22.6 | 38 | 37 | 31.9 | 40 | 34 | 37.9 | 29.7 | 30.3 | 40.9 | 35.7 | 39.1 | 35.5 | 26.8 | 30.2 | 11.4 | 29.4 | 20.2
